In the NIST ThermoML archive (doi:10.1016/j.fluid.2008.03.004):

Experiment: xn = mol fraction of the nth substance listed
Details: 101 kPa, Liquid; for speed of sound: Sing-around technique in a fixed-path interferometer

Cc1cccc(C)c1 [1,3-dimethylbenzene] + COC(C)(C)C
Details	mass density [kg/m3]	speed of sound [m/s]
288.15 K, x2 = 0	868.459	1362.7
288.15 K, x2 = 0.047	863.235	1350.6
288.15 K, x2 = 0.115	855.522	1332.6
288.15 K, x2 = 0.212	844.315	1306.8
288.15 K, x2 = 0.304	833.627	1282.4
288.15 K, x2 = 0.399	822.223	1256.5
288.15 K, x2 = 0.5	809.928	1228.3
288.15 K, x2 = 0.601	797.423	1200.9
288.15 K, x2 = 0.651	791.063	1185.3
288.15 K, x2 = 0.794	772.47	1143.4
288.15 K, x2 = 0.898	758.81	1113.2
288.15 K, x2 = 0.954	751.317	1097.5
290.65 K, x2 = 0	866.318	1352.1
290.65 K, x2 = 0.047	861.081	1340.1
290.65 K, x2 = 0.115	853.297	1322.5
290.65 K, x2 = 0.212	842.102	1296.1
290.65 K, x2 = 0.304	831.375	1271.5
290.65 K, x2 = 0.399	819.939	1245.6
290.65 K, x2 = 0.5	807.6	1217.4
290.65 K, x2 = 0.601	795.051	1189.7
290.65 K, x2 = 0.651	788.663	1173.8
290.65 K, x2 = 0.794	769.999	1132
290.65 K, x2 = 0.898	756.279	1101.5
290.65 K, x2 = 0.954	748.754	1085.7
293.15 K, x2 = 0	864.177	1341.7
293.15 K, x2 = 0.047	858.922	1329.7
293.15 K, x2 = 0.115	851.118	1312
293.15 K, x2 = 0.212	839.887	1285.5
293.15 K, x2 = 0.304	829.126	1260.8
293.15 K, x2 = 0.399	817.65	1234.7
293.15 K, x2 = 0.5	805.27	1206.5
293.15 K, x2 = 0.601	792.671	1178.5
293.15 K, x2 = 0.651	786.26	1162.6
293.15 K, x2 = 0.794	767.519	1120.7
293.15 K, x2 = 0.898	753.738	1090
293.15 K, x2 = 0.954	746.179	1074.1
295.65 K, x2 = 0	862.035	1331.3
295.65 K, x2 = 0.047	856.763	1319
295.65 K, x2 = 0.115	848.935	1301.5
295.65 K, x2 = 0.212	837.67	1274.9
295.65 K, x2 = 0.304	826.872	1250.1
295.65 K, x2 = 0.399	815.358	1223.9
295.65 K, x2 = 0.5	802.93	1195.6
295.65 K, x2 = 0.601	790.285	1167.3
295.65 K, x2 = 0.651	783.85	1151.5
295.65 K, x2 = 0.794	765.033	1109.4
295.65 K, x2 = 0.898	751.19	1078.5
295.65 K, x2 = 0.954	743.594	1062.5
298.15 K, x2 = 0	859.89	1320.9
298.15 K, x2 = 0.047	854.604	1308.8
298.15 K, x2 = 0.115	846.749	1291
298.15 K, x2 = 0.212	835.447	1264.3
298.15 K, x2 = 0.304	824.615	1239.4
298.15 K, x2 = 0.399	813.059	1213.1
298.15 K, x2 = 0.5	800.588	1184.7
298.15 K, x2 = 0.601	787.899	1156
298.15 K, x2 = 0.651	781.433	1140.4
298.15 K, x2 = 0.794	762.537	1098.1
298.15 K, x2 = 0.898	748.629	1066.9
298.15 K, x2 = 0.954	740.997	1050.9
300.65 K, x2 = 0	857.742	1310.6
300.65 K, x2 = 0.047	852.439	1298.5
300.65 K, x2 = 0.115	844.562	1280.5
300.65 K, x2 = 0.212	833.221	1253.8
300.65 K, x2 = 0.304	822.354	1228.8
300.65 K, x2 = 0.399	810.758	1202.3
300.65 K, x2 = 0.5	798.24	1173.9
300.65 K, x2 = 0.601	785.504	1144.9
300.65 K, x2 = 0.651	779.011	1129.3
300.65 K, x2 = 0.794	760.033	1086.9
300.65 K, x2 = 0.898	746.061	1055.5
300.65 K, x2 = 0.954	738.393	1039.4
303.15 K, x2 = 0	855.593	1300.3
303.15 K, x2 = 0.047	850.273	1288.1
303.15 K, x2 = 0.115	842.425	1270
303.15 K, x2 = 0.212	830.994	1243.3
303.15 K, x2 = 0.304	820.086	1218.2
303.15 K, x2 = 0.399	808.453	1191.6
303.15 K, x2 = 0.5	795.888	1163.1
303.15 K, x2 = 0.601	783.103	1133.8
303.15 K, x2 = 0.651	776.58	1118.3
303.15 K, x2 = 0.794	757.521	1075.7
303.15 K, x2 = 0.898	743.481	1044
303.15 K, x2 = 0.954	735.774	1027.8
305.65 K, x2 = 0	853.441	1290
305.65 K, x2 = 0.047	848.1	1277.8
305.65 K, x2 = 0.115	840.172	1259.7
305.65 K, x2 = 0.212	828.758	1232.9
305.65 K, x2 = 0.304	817.815	1207.7
305.65 K, x2 = 0.399	806.139	1180.9
305.65 K, x2 = 0.5	793.525	1152.3
305.65 K, x2 = 0.601	780.692	1122.8
305.65 K, x2 = 0.651	774.141	1107.3
305.65 K, x2 = 0.794	755.009	1064.7
305.65 K, x2 = 0.898	740.889	1032.7
305.65 K, x2 = 0.954	733.146	1016.3
308.15 K, x2 = 0	851.282	1279.8
308.15 K, x2 = 0.047	845.927	1267.6
308.15 K, x2 = 0.115	837.974	1249.3
308.15 K, x2 = 0.212	826.519	1222.5
308.15 K, x2 = 0.304	815.538	1197.2
308.15 K, x2 = 0.399	803.818	1170.3
308.15 K, x2 = 0.5	791.157	1141.6
308.15 K, x2 = 0.601	778.273	1112
308.15 K, x2 = 0.651	771.692	1096.4
308.15 K, x2 = 0.794	752.457	1053.3
308.15 K, x2 = 0.898	738.286	1021.4
308.15 K, x2 = 0.954	730.505	1004.8
310.65 K, x2 = 0	849.122	1269.6
310.65 K, x2 = 0.047	843.75	1257.3
310.65 K, x2 = 0.115	835.768	1239.1
310.65 K, x2 = 0.212	824.276	1212.1
310.65 K, x2 = 0.304	813.255	1186.8
310.65 K, x2 = 0.399	801.494	1159.8
310.65 K, x2 = 0.5	788.781	1130.9
310.65 K, x2 = 0.601	775.847	1101.1
310.65 K, x2 = 0.651	769.237	1085.5
310.65 K, x2 = 0.794	749.912	1042.3
310.65 K, x2 = 0.898	735.671	1010.1
310.65 K, x2 = 0.954	727.852	993.4
313.15 K, x2 = 0	846.958	1259.5
313.15 K, x2 = 0.047	841.566	1247.2
313.15 K, x2 = 0.115	833.56	1228.8
313.15 K, x2 = 0.212	822.027	1201.8
313.15 K, x2 = 0.304	810.966	1176.3
313.15 K, x2 = 0.399	799.161	1149.3
313.15 K, x2 = 0.5	786.398	1120.3
313.15 K, x2 = 0.601	773.412	1090.2
313.15 K, x2 = 0.651	766.771	1074.7
313.15 K, x2 = 0.794	747.356	1031.2
313.15 K, x2 = 0.898	733.042	998.84
313.15 K, x2 = 0.954	725.183	981.87
315.65 K, x2 = 0	844.792	1249.3
315.65 K, x2 = 0.047	839.381	1237
315.65 K, x2 = 0.115	831.348	1218.6
315.65 K, x2 = 0.212	819.775	1191.5
315.65 K, x2 = 0.304	808.673	1165.9
315.65 K, x2 = 0.399	796.825	1138.8
315.65 K, x2 = 0.5	784.01	1109.7
315.65 K, x2 = 0.601	770.967	1079.5
315.65 K, x2 = 0.651	764.3	1063.9
315.65 K, x2 = 0.794	744.791	1020.2
315.65 K, x2 = 0.898	730.402	987.66
315.65 K, x2 = 0.954	722.504	970.42
318.15 K, x2 = 0	842.622	1239.3
318.15 K, x2 = 0.047	837.193	1226.9
318.15 K, x2 = 0.115	829.131	1208.5
318.15 K, x2 = 0.212	817.518	1181.2
318.15 K, x2 = 0.304	806.375	1155.6
318.15 K, x2 = 0.399	794.481	1128.3
318.15 K, x2 = 0.5	781.614	1099.1
318.15 K, x2 = 0.601	768.518	1068.8
318.15 K, x2 = 0.651	761.816	1053.1
318.15 K, x2 = 0.794	742.213	1009.3
318.15 K, x2 = 0.898	727.749	976.53
318.15 K, x2 = 0.954	719.811	959.09
320.65 K, x2 = 0	840.452	1229.3
320.65 K, x2 = 0.047	835	1216.9
320.65 K, x2 = 0.115	826.912	1198.3
320.65 K, x2 = 0.212	815.256	1171
320.65 K, x2 = 0.304	804.075	1145.3
320.65 K, x2 = 0.399	792.132	1118
320.65 K, x2 = 0.5	779.21	1088.6
320.65 K, x2 = 0.601	766.061	1058.2
320.65 K, x2 = 0.651	759.325	1042.4
320.65 K, x2 = 0.794	739.628	998.4
320.65 K, x2 = 0.898	725.085	965.42
320.65 K, x2 = 0.954	717.105	947.81
323.15 K, x2 = 0	838.289	1219.5
323.15 K, x2 = 0.047	832.812	1207
323.15 K, x2 = 0.115	824.696	1188.4
323.15 K, x2 = 0.212	813.002	1161.1
323.15 K, x2 = 0.304	801.776	1135.1
323.15 K, x2 = 0.399	789.785	1107.7
323.15 K, x2 = 0.5	776.809	1078.2
323.15 K, x2 = 0.601	763.606	1047.7
323.15 K, x2 = 0.651	756.839	1031.9
323.15 K, x2 = 0.794	737.044	987.59
323.15 K, x2 = 0.898	722.414	954.46
323.15 K, x2 = 0.954	714.398	936.68
